Experimental data: publication PMC13170813, “Agmatine coumaroyltransferase gene on the short arm of chromosome 2H is involved in hordatine biosynthesis in barley” (Plant Biotechnology, 2026)

Tested on: T1, HvACT-2HS1
T1 construct: full-length, 467 residues; pET28a (NdeI) N-terminal His-tag removed with thrombin; E. coli Rosetta 2 (DE3); 57 kDa SDS-PAGE, 51 kDa native, monomer
Experiment: HPLC of product ([…] nm), Michaelis-Menten non-linear fit
Type: biochemical, Hordeum vulgare subsp. vulgare
Conditions: 100 mM Tris-HCl pH 8.5, 40°C

Structure (SMILES)	Km (100 µM agmatine)	Km (100 µM p-coumaroyl-CoA)
CC(C)(COP(=O)(O)OP(=O)(O)OC[C@H]1O[C@@H](n2cnc3c(N)ncnc32)[C@H](O)[C@@H]1OP(=O)(O)O)[C@@H](O)C(=O)NCCC(=O)NCCSC(=O)/C=C/c1ccc(O)cc1 [p-Coumaroyl-CoA]	12 ± 1.3 µM	–
COc1cc(/C=C/C(=O)SCCNC(=O)CCNC(=O)[C@H](O)C(C)(C)COP(=O)(O)OP(=O)(O)OC[C@H]2O[C@@H](n3cnc4c(N)ncnc43)[C@H](O)[C@@H]2OP(=O)(O)O)ccc1O [Feruloyl-CoA]	6.6 ± 2.2 µM	–
NCCCCN [Putrescine]	–	30000 µM
N=C(N)NCCCCN [Agmatine]	–	30 ± 1.3 µM
